Measured values: patent US20160221948A1, “NITROGEN-CONTAINING SATURATED HETEROCYCLIC COMPOUND” (SUMITOMO CHEMICAL COMPANY, LIMITED, priority 2013, published 2016)
pEC50, pKi: −log10 of the molar value.

Legend:
[1] = tested on: Slc:ddY mice; experiment: Mouse Y-shaped maze test, scopolamine-induced memory impairment; format: in vivo; conditions: for spontaneous alternations: Scopolamine HBr 0.6 mg/kg subcutaneous
Protocol: Evaluation of amelioration in cognitive impairment using mouse Y-shaped maze test (hereinafter, may be called “Y-maze test”)
In the Y-maze test using Slc:ddY mice (male, Japan SLC, Inc.) with body weight of 25-35 g or 27-30 g, when 0.6 mg/kg of Scopolamine HBr (cat. No. S0929, Sigma Aldrich, USA) is subcutaneously administered to mice, memory impairment is caused, and reducing in spontaneous alternation is observed. Accordingly, mice were pre-treated by orally receiving compounds involved with the present invention, and ameliorating action in memory impairment was evaluated. […] (hereinafter, spontaneous alternations in each group in Example 21 are shown: 0.5% MC receiving group, 71.2±3.5; Scopolamine receiving group, 47.5±2.6; 1 mg/kg receiving group, 60.7±2.6; 3 mg/kg receiving group, 64.6±2.2.)

[2] = biological target: T1, SSTR1 (Homo sapiens, UniProt P30872); experiment: Binding affinity using cell membrane from cells expressing SSTR subtypes
T1 construct: expressed in transfected cells

[3] = biological target: T2, SSTR2 (Homo sapiens, UniProt P30874); experiment: as above
T2 construct: expressed in transfected cells

[4] = biological target: T3, SSTR3 (Homo sapiens, UniProt P32745); experiment: as above
T3 construct: expressed in transfected cells

[5] = tested on: Crlj: WI rats; experiment: Acetylcholine release enhancing action, hippocampus microdialysis test using rats; format: in vivo, rat; conditions: 10 mg/kg (oral), 60 minutes after administration, high potassium stimulation
Protocol: Examination of Acetylcholine Release Enhancing Action with Microdialysis Test Using Rats
A guide cannula was placed into the hippocampus of Crlj: WI rats, and microdialysis was performed by inserting a probe after the animals were recovered. After administering the compounds involved with the present invention, the hippocampus was stimulated by changing the perfusate into the high potassium solution for 15 minutes. Acetylcholine levels in the perfusate were analyzed with a HPLC-ECD apparatus.

[6] = tested on: Tg 2576 mice; experiment: Cognitive function improving action (mORT) using Tg 2576 mice; format: in vivo, mouse; conditions: 30 mg/kg/day mixed in feed for 4 months
Protocol: (§1) Evaluation of Cognitive Function Improving Action and Aβ Reducing Action Using Tg 2576 Mice
(§2) Four-month-old Tg 2576 mice received compounds involved with the present invention mixed in feed for 4 months. After completion of administration, the mORT test was performed to evaluate cognitive function, then the amount of brain Aβ was measured by ELISA. […] Discrimination index as indexes for evaluating cognitive function were as follows (vehicle, 0.064±0.049, 30 mg/kg/day; 0.330±0.062).

[7] = tested on: Tg 2576 mice; experiment: Aβ reducing action (brain Aβ by ELISA) using Tg 2576 mice; format: in vivo, mouse
Protocol: as §1, §2

[8] = Pharmacokinetic test (PK test) using rodents; format: in vivo; conditions: mouse, brain and plasma; mice, 10 mg/kg oral, an hour and 4 hours after; read-out: brain-plasma concentration ratio
Protocol: Moreover, it was verified, as the results of a pharmacokinetic test (PK test) using rodents, that the compound of the present invention has more excellent in vivo kinetics, central nervous system penetration, and exposure level, compared with the pyrrolidine derivative described in Patent Literature 1. In particular, the following Test Example 8 was performed.
Pharmacokinetic Test (PK Test) Using Rodents
Compounds of the present invention were orally administered to mice at a dose of 10 mg/kg, and an hour and 4 hours after, the plasma and the brain were collected, concentrations of the administered compounds were measured by LC/MS/MS. As well, protein binding rates in the plasma and the brain were measured with equilibrium dialysis method, and concentrations of non-binding compounds were calculated. The brain-plasma concentration ratio was about 5 in any cases of an hour and 4 hours after for compounds obtained in Examples 7, 14, 15, 16, 17, 18, 20, 21, 27, 40, and 50, which indicated excellent central nervous system penetration.

[9] = biological target: human SSTR4 (Homo sapiens, UniProt P31391); experiment: Evaluation of agonist activities using human SSTR4-stably expressing cells (aequorin luminescence); format: cell-based; parameters: expressed in transfected cells; host or cells: HEK293
Procedure, shortened: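 HEK293 cells stably expressing SSTR4, transiently given Gα16 and apoaequorin, were loaded with 0.5 μmol/L coelenterazine H for 4 h at room temperature. After compound addition in Hanks/20 mM Hepes/0.1% BSA, luminescence was read for 90 s. Activity is relative to 1 μmol/L somatostatin as 100%.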

human SSTR4, sequence (P31391 whole entry): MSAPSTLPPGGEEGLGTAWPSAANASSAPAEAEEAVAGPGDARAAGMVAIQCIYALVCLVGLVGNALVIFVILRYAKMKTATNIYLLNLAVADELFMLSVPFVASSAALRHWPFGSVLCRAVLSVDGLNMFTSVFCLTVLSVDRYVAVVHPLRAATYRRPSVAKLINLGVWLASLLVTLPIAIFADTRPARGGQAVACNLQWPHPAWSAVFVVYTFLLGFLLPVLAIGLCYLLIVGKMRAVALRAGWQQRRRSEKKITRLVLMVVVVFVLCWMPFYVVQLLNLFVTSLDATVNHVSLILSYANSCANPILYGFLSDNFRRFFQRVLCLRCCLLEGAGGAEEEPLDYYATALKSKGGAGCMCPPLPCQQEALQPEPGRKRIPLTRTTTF
T2 sequence (P30874 whole entry, species assumed): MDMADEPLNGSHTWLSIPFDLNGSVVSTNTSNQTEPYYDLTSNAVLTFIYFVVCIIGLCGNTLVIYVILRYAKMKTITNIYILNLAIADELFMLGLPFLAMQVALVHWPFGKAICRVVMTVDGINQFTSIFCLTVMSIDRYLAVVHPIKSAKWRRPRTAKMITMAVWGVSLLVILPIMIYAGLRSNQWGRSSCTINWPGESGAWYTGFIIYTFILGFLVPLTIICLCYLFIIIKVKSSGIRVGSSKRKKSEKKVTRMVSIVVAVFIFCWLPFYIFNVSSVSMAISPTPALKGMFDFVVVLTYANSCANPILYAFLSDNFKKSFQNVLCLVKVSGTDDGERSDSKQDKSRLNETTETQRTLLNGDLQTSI
T3 sequence (P32745 whole entry, species assumed): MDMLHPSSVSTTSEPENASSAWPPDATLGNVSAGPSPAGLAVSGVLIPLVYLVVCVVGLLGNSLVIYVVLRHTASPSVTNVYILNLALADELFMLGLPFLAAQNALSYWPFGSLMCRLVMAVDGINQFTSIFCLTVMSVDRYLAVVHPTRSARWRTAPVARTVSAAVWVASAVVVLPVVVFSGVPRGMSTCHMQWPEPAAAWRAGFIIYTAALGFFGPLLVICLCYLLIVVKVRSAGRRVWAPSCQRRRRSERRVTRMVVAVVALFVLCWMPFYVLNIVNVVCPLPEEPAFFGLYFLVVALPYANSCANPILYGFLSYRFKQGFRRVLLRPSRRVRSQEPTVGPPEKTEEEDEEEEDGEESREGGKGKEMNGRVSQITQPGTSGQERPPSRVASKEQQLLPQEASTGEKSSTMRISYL
T1 sequence (P30872 whole entry, species assumed): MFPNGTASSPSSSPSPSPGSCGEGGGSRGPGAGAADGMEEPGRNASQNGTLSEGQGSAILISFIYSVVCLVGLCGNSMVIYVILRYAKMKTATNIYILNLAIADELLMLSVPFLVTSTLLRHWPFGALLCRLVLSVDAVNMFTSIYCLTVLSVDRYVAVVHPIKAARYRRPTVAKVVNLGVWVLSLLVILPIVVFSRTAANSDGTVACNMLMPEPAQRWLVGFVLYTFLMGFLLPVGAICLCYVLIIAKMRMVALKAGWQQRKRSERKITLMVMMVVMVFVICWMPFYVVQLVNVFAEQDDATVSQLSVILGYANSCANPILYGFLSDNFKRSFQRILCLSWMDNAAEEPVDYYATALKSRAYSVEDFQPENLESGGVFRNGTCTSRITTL

pKi [2]: 5.80
pKi [3]: < 5.30
pKi [4]: < 5.52
Kp [8]: ~5
SSTR4 agonist activity compared with other compounds ([9]; Tables 25 to 27): stronger SSTR4 agonist activity
pEC50 ([9]; luminescence signal, 1 μmol/L somatostatin taken as 100%): 8.70
Structure (SMILES): CN1CCC[C@H](C(=O)NC(C)(C)c2cc(Cl)ccc2Cl)C1 [Example 21, (3S)—N-[2-(2,5-dichlorophenyl)propane-2-yl]-1-methylpiperidine-3-carboxamide]
spontaneous alternations ([1]; 1 mg/kg oral): 60.7±2.6
spontaneous alternations ([1]; 3 mg/kg oral): 64.6±2.2
ameliorating action in memory impairment ([1]; at 1 or 3 mg/kg (oral)): significant ameliorating action in memory impairment
acetylcholine level in hippocampus perfusate compared with the Vehicle [5]: significantly enhanced acetylcholine level
cognitive function improving action [6]: significant cognitive function improving action
discrimination index [6]: 0.330±0.062
hippocampus Aβ42 reducing action compared with the Vehicle ([7]; 100 mg/kg/day): significant hippocampus Aβ42 reducing action
hippocampus Aβ42 ([7]; 100 mg/kg/day mixed in feed for 4 months): 198.11 ± 26.32 pmol/g
